Reference: ChEMBL document CHEMBL1275552, “In vitro activities at pH 5.0 and pH 7.0 and in vivo efficacy of flucytosine against Aspergillus fumigatus” (Antimicrob Agents Chemother, 2008)
Values after ≈ are worked out from the molar mass of the structure shown. Active and inactive are the calls of the source. No cut-off for these calls is given here.

Key:
Aspergillus fumigatus [1] = assay: Antifungal activity against flucytosine-resistant Aspergillus fumigatus isolate AZN 58 infected in CD-1 mouse at 200 mg/kg administered every 6 hrs; assay type: functional, organism-based; set-up: dose 200 mg/kg
[2] = Half life in human; assay type: ADME, organism-based; conditions: in vivo
Aspergillus fumigatus [3] = assay: Antifungal activity against flucytosine-susceptible Aspergillus fumigatus isolate AZN 58 infected in CD-1 mouse assessed as prolongation of survival at 200 mg/kg administered every 6 hrs; assay type: functional, organism-based; set-up: dose 200 mg/kg
Aspergillus fumigatus [4] = assay: Antifungal activity against flucytosine-resistant Aspergillus fumigatus isolate AZN 58 infected in CD-1 mouse at 100 mg/kg administered every 6 hrs; assay type: functional, organism-based; set-up: dose 100 mg/kg
Aspergillus fumigatus [5] = assay: Antifungal activity against flucytosine-resistant Aspergillus fumigatus isolate AZN 58 infected in CD-1 mouse at 100 mg/kg administered every 12 hrs; assay type: functional, organism-based; set-up: dose 100 mg/kg
Aspergillus fumigatus [6] = assay: Antifungal activity against Aspergillus fumigatus at pH 5.0 by broth microdilution method; assay type: functional
Aspergillus sp. = assay: Antifungal activity against Aspergillus sp. by broth microdilution method; assay type: functional
[7] = Half life in CD-1 mouse at 800 mg/kg; assay type: ADME, organism-based; set-up: dose 800 mg/kg; conditions: in vivo
Aspergillus fumigatus [8] = assay: Antifungal activity against Aspergillus fumigatus at pH 7.0 by broth microdilution method; assay type: functional
Aspergillus fumigatus [9] = assay: Antifungal activity against flucytosine-susceptible Aspergillus fumigatus isolate AZN 58 infected in CD-1 mouse assessed as prolongation of survival at 100 mg/kg administered every 12 hrs; assay type: functional, organism-based; set-up: dose 100 mg/kg
Aspergillus fumigatus [10] = assay: Antifungal activity against flucytosine-susceptible Aspergillus fumigatus isolate AZN 58 infected in CD-1 mouse assessed as prolongation of survival at 200 mg/kg administered every 12 hrs; assay type: functional, organism-based; set-up: dose 200 mg/kg
Aspergillus fumigatus [11] = assay: Antifungal activity against flucytosine-resistant Aspergillus fumigatus isolate AZN 58 infected in CD-1 mouse at 200 mg/kg administered every 12 hrs; assay type: functional, organism-based; set-up: dose 200 mg/kg
Aspergillus fumigatus [12] = assay: Antifungal activity against flucytosine-susceptible Aspergillus fumigatus isolate AZN 58 infected in CD-1 mouse assessed as prolongation of survival at 100 mg/kg administered every 6 hrs; assay type: functional, organism-based; set-up: dose 100 mg/kg

For `Nc1nc(=O)[nH]cc1F` [FLUCYTOSINE], the Activity (Aspergillus fumigatus [1]) was “inactive”, the half-life [2] was 2.5 h and the Activity (Aspergillus fumigatus [3]) was “Active”. For the same compound, the Activity (Aspergillus fumigatus [4]) was “inactive”, the Activity (Aspergillus fumigatus [5]) was “inactive” and the MIC (Aspergillus fumigatus [6]) was 0.125 µg/mL (≈ 0.968 µM). For the same compound, the MIC (Aspergillus sp.) was > 64 µg/mL, the half-life [7] was 0.5 h and the MIC (Aspergillus fumigatus [8]) was 128 µg/mL (≈ 992 µM). The Activity (Aspergillus fumigatus [9]) was “Active”, the Activity (Aspergillus fumigatus [10]) was “Active” and the Activity (Aspergillus fumigatus [11]) was “inactive”. For the same compound, the Activity (Aspergillus fumigatus [12]) was “Active”.
